Data from US11872230B2, “Method of treating a methionine-dependent cancer” (Agency for Science, Technology and Research, priority 2018, dated 2024).
“Also recorded” adds a separate entry of the source. Where a SMILES comes first, the peptide text is derived from it. The star is where a group is joined. Cbz = O=C(OCc1ccccc1)*

Tests used:
[1] = test system: TS cells (lung TICs); experiment: Intraperitoneal administration to NSG mice subcutaneously implanted with lung TICs; type: in vivo; settings: cisplatin 4 mg/kg i.p., three days, 6 weeks
Description: (§1) 5×10^5 single cells were mixed in a 1:1 mixture of serum free DMEM/F12 and Matrigel (BD) and injected subcutaneously into the flanks of 4-6 week old male and female NOD.Cg-Prkdc^scid Il2rg^tm1wjl SzJ (Jackson Laboratories). About 6 weeks later, or when tumor sizes exceed 2 cm in length, mice were sacrificed and tumors harvested for analysis. All animal experiments were approved by the Agency for Science Technology and Research Singapore—Biological Resource Centre. Mice were randomized by sex.
Since FIDAS5 appeared to more specifically disrupt the methionine cycle and inhibit cellular methylation activities compared to D9, it was sought to test whether its systemic delivery could impact the tumorigenic potential of TS cells. These highly tumorigenic cells were first subcutaneously implanted into NSG mice and FIDAS5 (40 mg/kg) or corn oil carrier was immediately administered via intraperitoneal injection for three consecutive days. After 6 weeks, mice transiently treated with FIDAS5 produced tumors that were much smaller than carrier-treated controls. […] To exclude the possibility of general cytotoxicity associated with the inhibitor on TS cells, TS cell-implanted NSG mice were treated with cisplatin (4 mg/kg), a frontline chemotherapeutic agent that broadly target bulk cancer cells in NSCLC tumors, in the same manner (FIG. 5i). […]

[2] = test system: methylated histones in TS cells; experiment: Protein turnover experiment (cycloheximide) of methylated histones in TS cells; type: cell-based, human; settings: MG132 10 μM with 20 μg/ml cycloheximide
Description: (§2) 1.5×10^6 cells were lysed in Llaemli-SDS buffer and then sonicated. Total protein concentration was measured by Bradford assay. Total cell lysates were separated by SDS-PAGE and transferred onto nitrocellulose, followed by blocking in 5% (v/v) milk in Tris-buffered saline in Tween 20, probing with the indicated antibodies and visualized by chemiluminescence (Roche). Primary antibodies used were anti-β-Actin (sc-47778), anti-GAPDH (sc-32233) from Santa Cruz: anti-GLDC (ab97625), anti-H3 (ab1791), anti-H3 (dimethylK36) (ab9049), anti-MAT2A (ab77471), anti-MTR (ab9209), anti-H3 (trimethylK79) (ab2621), anti-MTHFR (ab125707), anti-MTAP (ab ab55517) from Abcam; anti-H3(trimethyl K4) (39159), anti-H3(trimethyl K27)(39155), anti-H3(trimethylK36)(61101) and anti-H3(trimethylK9)(39765) from Active Motif; anti-β-catenin (BD610154) from BD Biosciences; anti-SHMT2 (HPA020549) and anti-SAHH (WH0000191M8) from Sigma; anti-Symmetric Di-Methyl Arginine Motif (13222) from CST.
5×10^5 cells were treated with 20 μg/ml of cycloheximide (Sigma) and harvested for immunoblotting at indicated time points thereafter.

[3] = test system: histone methylation in TS cells; experiment: Western blot of methylated histones in TS cells; type: cell-based, human
Description: as §2
(§3) To evaluate the methionine cycle as a therapeutic target in lung TICs, small molecule inhibitors that target enzymes within this pathway were employed, mimicking the effects of short-term methionine starvation (FIG. 5a). two inhibitors known to perturb methionine cycle activity and cellular methylation levels: 1) MAT2A inhibitor, FIDAS5; and 2) SAHH inhibitor, D9, which is an analog of DZNep. In a manner similar to amino acid starvation studies, TS cells were exposed transiently to the compounds for 48 h in culture and were immediately used for downstream tumorigenesis assays.

[4] = test system: ATP levels in knockdown TS cells; experiment: Steady-state ATP levels (CellTiter-Glo) in GLDC/SHMT2 knockdown TS cells; type: cell-based, human; settings: GLDC (or SHMT2) knockdown cells; formate 0.5 mM or adenosine 200 μM
Description: (§4) Cells were seeded into 96-well plates at a density of 1,000 cells/well at 10 replicate wells per condition. Cells were then left to equilibrate at 37° C. for 3 h. ATP was then quantified using the CellTiter-GLo reagent (Promega). 5 biological replicates were used.

[5] = test system: histone methylation in GLDC KD cells; experiment: Western blot of methylated histones in GLDC KD cells with metabolite supplementation; type: cell-based, human; settings: SAM 500 μM 48 h, formate 0.5 mM, methyl-THF 20 μM or adenosine 200 μM
Description: (§5) 1.5×10^6 cells were lysed in Llaemli-SDS buffer and then sonicated. Total protein concentration was measured by Bradford assay. Total cell lysates were separated by SDS-PAGE and transferred onto nitrocellulose, followed by blocking in 5% (v/v) milk in Tris-buffered saline in Tween 20, probing with the indicated antibodies and visualized by chemiluminescence (Roche).

[6] = test system: ATP levels in Adh cells; experiment: Steady-state ATP levels (CellTiter-Glo) in Adh cells; type: cell-based, human; settings: formate 0.5 mM
Description: as §4

[7] = test system: histone methylation in MTHFR overexpressing+GLDC KD cells; experiment: Western blot of methylated histones in MTHFR overexpressing+GLDC KD cells; type: cell-based, human; settings: formate 0.5 mM
Description: as §5

[8] = test system: TS cells (lung TICs); experiment: Tumor formation in NSG mice after transplantation of pre-treated TS cells; type: in vivo
Description: as §1, §3

[9] = test system: MTHFR abundance in GLDC KD cells; experiment: Western blot of MTHFR in SAM supplemented GLDC KD cells; type: cell-based, human
Description: as §2

[10] = test system: TS cells (lung TICs); experiment: Soft agar colony formation of pre-treated TS cells; type: cell-based, human
Description: 2.5 ml lower layer of 0.7% agar in complete DMEM/F12 with 10% fetal bovine serum was placed in 3 wells of a 6 well dish, and permitted to solidify. 2×10^4 Cells (for 3 wells) were then suspended in a 2 ml layer of 0.35% agar in complete DMEM/F12 with 10% fetal bovine serum and layered on top of the bottom layer. Colonies were stained with crystal violet and counted after approximately 2 months.
as §3

[11] = test system: GLDC KD cells; experiment: Tumor mass in NSG mice after transplantation of SAM supplemented GLDC KD cells; type: in vivo; settings: GLDC KD cells supplemented with SAM for 48 hours before xenografting
Description: as §1

[12] = methionine-starved TS cells (48 h) supplemented with SAM 500 μM or homocysteine 250 μM
[13] = TS cells, 500 μM SAM in the presence of FIDAS5

N.N.[Cl][Pt][Cl] [Cisplatin, cis-Diammineplatinum(II) dichloride]
tumor growth [1]: unable to halt tumor growth

CC(C)C[C@@H](C=O)NC(=O)[C@H](CC(C)C)NC(=O)[C@H](CC(C)C)NC(=O)OCc1ccccc1 [MG132] (Cbz-Leu-Leu-Leu-aldehyde)
high turnover of methylated histones [2]: rescued

N[C@@H](CCS)C(=O)O [Homocysteine, homocysteine]
histone methylation [3, 12]: failed to rescue

Nc1ncnc2c1ncn2[C@@H]1O[C@H](CO)[C@@H](O)[C@H]1O [adenosine, Adenosine]
steady state ATP levels [4]: rescued ATP levels | histone methylation [5]: did not rescue

O=C[O-].[Na+] [formate, Sodium formate]
ATP levels [6]: could not rescue | steady state ATP levels [4]: could be rescued; also recorded: rescued ATP levels | histone methylation [7]: fully rescued | histone methylation [5]: did not rescue

C[S+](CC[C@H](N)C(=O)O)C[C@H]1O[C@@H](n2cnc3c(N)ncnc32)[C@H](O)[C@@H]1O (stereo partly drawn) [SAM, S-adenosyl methionine]
tumor-formation capability ([8]; TS cells, 500 μM SAM in the presence of FIDAS5, transplanted into NSG mice): rescued, to a large extent | tumor-forming capability ([8]; methionine starvation conditions, SAM 500 μM supplemented, NSG mice): rescued | histone methylation [3, 13]: rescued, to a large extent | histone methylation [3, 12]: restored | MTHFR abundance [9]: recovery of MTHFR abundance | colony-formation capability [10, 13]: rescued, to a large extent | colony-forming capability ([10]; methionine starvation conditions, SAM 500 μM supplemented): rescued | histone methylation [5]: reestablishment of histone methylation | tumorigenic potential [11]: incomplete rescue
